The record followed here is patent publication US4218566A, “11-(2-Hydroxyethylthio) prostenoic acid E and F series derivatives” (American Cyanamid Company, priority 1978, dated 1980).

Where two headings read alike, the source gives them in different places.

Assay type in all cases: in vivo
Assay [1] relates to bronchospasms elicited by acetylcholine. In words: bronchodilator activity, (modified) guinea pig Konzett procedure, acetylcholine-induced bronchospasm. Conditions: Cavia porcellus, iv. The procedure: (§1) Bronchodilator activity is determined in guinea pigs against bronchospasms elicited by intravenous injections of 5-hydroxytryptamine, histamine of acetylcholine by the Konzett procedure. [See J. Lulling, P. Lievens, F. El Sayed and J. Prignot, Arzneimittel-Forschung, 18, 995 (1968)].
(§2) In the Table I which follows, bronchodilator activity for representative compounds of this invention against one or more of the three spasmogenic agents is expressed as an ED50 determined from the results obtained with three logarithemic cumulative intravenous doses.
(§3) The compounds dl-methyl ester of 11-deoxy-11α-(2-hydroxyethylthio)-15α-prostaglandin E2 (hereinafter called Compound I) and dl-methyl ester of 11-deoxy-11α-(2-hydroxyethoxy)-15α-prostaglandin E2 (hereinafter called Compound II) were submitted for testing in the modified Konzett procedure [J. Lulling, P. Lievens, F. El Sayed and J. Prignot, Arzneimittel-Forschung, 18, 995 (1968)].
(§4) The Modified Guinea Pig Konzett Assay measures the protective effects of experimental compounds against induced bronchospasms in guinea pigs.
(§5) Guinea pigs of either sex, weighing 300 to 500 g. are anesthetized by intraperitoneal injection of urethane at 1.5 g./kg. and curarized by intravenous injection of gallamine at 4 mg./kg. They are artificially ventilated through a tracheal cannula. Respiratory volume is adjusted according to the weight of the animal and the rate of the pump, in such a way as to obtain an insufflation pressure of 15-30 cm. of water.
(§6) The two jugular veins are catheterized, the first one being used for curarization and administration of the test compounds, the other one is used for the injection of the spasmogenic agent. Injections are made at selected speeds with a perfusion pump. The intratracheal pressure is measured with a transducer connected to the tracheal cannula and recorded on a polygraph.
(§7) Bronchial spasms are produced by intravenous injection of acetylcholine hydrochloride, histamine dihydrochloride or 5-hydroxy-tryptamine creatinine sulfate. The speed of injection of the spasmogenic solution and its concentration are chosen to give a dose (kept constant throughout the test) which is able to produce a consistant increase in the tracheal pressure. The injections are repeated every 5 minutes throughout the entire test by means of a program controlled automatic infusion syringe. When three successive control bronchoconstrictions of similar intensity are obtained, the animal is considered to be ready for the assay and receives the first dose of the test compound approximately two minutes later.
(§8) The compound being tested is suspended in 15% ethanol and injected through the jugular vein. The injection is repeated twice per animal at 15 minute intervals, so that three doses, in logarithmic progression, are assayed. Three spasms are recorded for each dose. The "bronchodilating" activity of each compound is assayed in at least four guinea pigs for each of the three spasmogenic substances. The amplitude of the three spasms (i.e. the difference between the maximum total tracheal pressure during the spasms and the normal insufflation pressure without spasm) following the administration of the drug are expressed in cm. of water.
(§9) When the average percent of variation (treated vs. control) of the first spasm following any dose of the compound reaches at least -50%, a regression line of the percent of variation versus the dose is computed in a semi-logarithmic system. The ED50 (dose producing a -50% variation) is then calculated. The same determination is made for the second and third spasm following the administration of a dose of the test compound if at some dose the variation percent reaches -50%.

For assay [2], the system named is bronchospasms elicited by 5-hydroxytryptamine. In words: bronchodilator activity, (modified) guinea pig Konzett procedure, 5-hydroxytryptamine-induced bronchospasm. Particulars: Cavia porcellus, iv. The protocol:
as §1, §2, §3, §4, §5, §6, §7, §8, §9

Assay [3] deals with bronchospasms. As to the kind of experiment: bronchodilator activity overall, guinea pig Konzett assay. Particulars: for Potency (Range 0-4): score. The procedure: The natural PGE1, PGE2 and PGE3 compounds are potent in causing multiple biological responses, even at low doses. As a bronchodilator, the natural prostaglandins have an inconveniently short duration of activity.
as §1, §2, §3, §4, §5, §6, §7, §8, §9

Assay [4] relates to bronchospasms elicited by histamine. As to the kind of experiment: bronchodilator activity, (modified) guinea pig Konzett procedure, histamine-induced bronchospasm. Particulars: Cavia porcellus, iv. The protocol: as §1, §2, §3, §4, §5, §6, §7, §8, §9
The mark [5] stands for this setting: spasm 1, read-out: ED50 vs. Acetylcholine Hydrochloride.
Setting [6] is: spasm 2, read-out: ED50 vs. Acetylcholine Hydrochloride.
Where [7] appears, read: spasm 1, read-out: ED50 vs. 5-Hydroxytryptamine Creatinine Sulfate.
Where [8] appears, read: spasm 2, read-out: ED50 vs. 5-Hydroxytryptamine Creatinine Sulfate.
Where [9] appears, read: spasm 3, read-out: ED50 vs. 5-Hydroxytryptamine Creatinine Sulfate.
The mark [10] stands for this setting: spasm 1, read-out: ED50 vs. Histamine Dihydrochloride.
The mark [11] stands for this setting: spasm 2, read-out: ED50 vs. Histamine Dihydrochloride.
The mark [12] stands for this setting: spasm 3, read-out: ED50 vs. Histamine Dihydrochloride.
[13] abbreviates: acetylcholine, first line of values for the compound, read-out: ED50 ACH.
Setting [14] is: acetylcholine, second line of values for the compound, read-out: ED50 ACH.
The mark [15] stands for this setting: 5-HT, first line of values for the compound, read-out: ED50 5-HT.
Where [16] appears, read: histamine, first line of values for the compound, read-out: ED50 HIST.
Where [17] appears, read: histamine, second line of values for the compound, read-out: ED50 HIST.
Setting [18] is: 5-HT, second line of values for the compound, read-out: ED50 5-HT.
[19] abbreviates: 5-HT, third line of values for the compound, read-out: ED50 5-HT.

A word on the ED50: it is the dose at which the effect has come halfway, by size or by number of responders.

As to `CCCCC[C@H](O)/C=C/[C@H]1[C@H](SCCO)CC(=O)[C@@H]1C/C=C\CCCC(=O)OC` (relative stereo) [Compound I, dl-methyl ester of 11-deoxy-11α-(2-hydroxyethylthio)-15α-prostaglandin E2], the ED50 in assay [1] (setting [5]) worked out at 0.033 mg/kg; in assay [1] (setting [6]), 0.289 mg/kg; in assay [2] (setting [7]) it was 0.0176 mg/kg; in assay [2] (setting [8]) it was 0.0629 mg/kg; in assay [2] (setting [9]), 0.153 mg/kg; in assay [4] (setting [10]), 0.0157 mg/kg. The ED50 in assay [4] (setting [11]) was determined as 0.0671 mg/kg; in assay [4] (setting [12]) it was 0.452 mg/kg. Further, in assay [3] (Compound I vs Compound II), the “bronchodilator potency of Compound I compared with Compound II, statistical analysis” value was “significantly more potent than Compound II as a bronchodilator”.

Consider `CCCCC[C@H](O)/C=C/[C@H]1[C@H](OCCO)CC(=O)[C@@H]1C/C=C\CCCC(=O)OC` (relative stereo) [Compound II, dl-methyl ester of 11-deoxy-11α-(2-hydroxyethoxy)-15α-prostaglandin E2, reference compound], for which the ED50 in assay [1] (setting [5]) stood at 0.506 mg/kg; in assay [1] (setting [6]) it was 3.31 mg/kg; in assay [2] (setting [7]) it was 0.119 mg/kg; in assay [2] (setting [8]), 0.495 mg/kg; in assay [2] (setting [9]), 1.28 mg/kg; in assay [4] (setting [10]), 0.152 mg/kg. For the same molecule, the ED50 was 0.707 mg/kg in assay [4] (setting [11]) and 1.46 mg/kg in assay [4] (setting [12]).

Turning to `CCCCC[C@H](O)/C=C/[C@H]1C(SCCO)CC(=O)[C@@H]1C/C=C\CCCC(=O)OC` (stereo partly drawn) [Example 223, Methyl Nat. 15α-hydroxy-9-oxo-11α/β(2-hydroxyethylthio)-5-cis,13-trans-prostadienoate], the ED50 in assay [1] (setting [13]) came to 0.0275 mg/kg; in assay [1] (setting [14]) it was 0.391 mg/kg; in assay [2] (setting [15]) it was 0.0088 mg/kg; in assay [4] (setting [16]) it was 0.00424 mg/kg; in assay [4] (setting [17]), 0.0442 mg/kg. The “Potency (Range 0-4)” value in assay [3] came out at 4.

Take `CCCCC(C)(O)C/C=C/C1C(SCCO)CC(=O)C1C/C=C\CCCC(=O)O` (stereo not drawn) [Example 225, 11α/β-(2-hydroxyethylthio)-16-hydroxy-16-methyl-9-oxo-5-cis,13-trans-prostadienoic acid]: the ED50 turned out to be 0.034 mg/kg in assay [1] (setting [13]); 0.017 mg/kg in assay [2] (setting [15]); 0.077 mg/kg in assay [2] (setting [18]); 0.257 mg/kg in assay [2] (setting [19]); 0.02 mg/kg in assay [4] (setting [16]); 0.108 mg/kg in assay [4] (setting [17]). Moreover, in assay [3], the “Potency (Range 0-4)” value is 3.

For the molecule `CCCCC(O)C/C=C/C1C(SCCO)CC(=O)C1CCCCCCC(=O)O` (stereo not drawn) [Example 226, 11α/β(2-hydroxyethylthio)-16-hydroxy-9-oxo-13-trans-prostenoic acid], the ED50 in assay [1] (setting [13]) came out at 0.053 mg/kg; in assay [2] (setting [15]), 0.019 mg/kg; in assay [2] (setting [18]), 0.082 mg/kg; in assay [2] (setting [19]) it was 0.288 mg/kg; in assay [4] (setting [16]) it was 0.0195 mg/kg; in assay [4] (setting [17]), 0.15 mg/kg. The “Potency (Range 0-4)” value in assay [3] is recorded as 3.

Regarding `CCCCC[C@H](O)/C=C/[C@H]1C(SCCO)CC(=O)[C@@H]1CCCCCCC(=O)O` (stereo partly drawn) [Example 228, Nat. 11α/β-(2-hydroxyethylthio)-15α-hydroxy-9-oxo-13-transprostenoic acid], the ED50 in assay [1] (setting [13]) came out at 0.011 mg/kg; in assay [1] (setting [14]) it was 0.061 mg/kg; in assay [1] (acetylcholine, third line of values for the compound, read-out: ED50 ACH.), 0.221 mg/kg; in assay [2] (setting [15]), 0.0055 mg/kg; in assay [2] (setting [18]) it was 0.034 mg/kg; in assay [2] (setting [19]), 0.078 mg/kg. Besides, the ED50 in assay [4] (setting [16]) was found to be 0.0047 mg/kg; in assay [4] (setting [17]), 0.036 mg/kg; in assay [4] (histamine, third line of values for the compound, read-out: ED50 HIST.), 0.071 mg/kg. Moreover, the “Potency (Range 0-4)” value in assay [3] was 4.

Take `CCCCC[C@H](O)/C=C/[C@H]1[C@H](SCCO)CC(=O)[C@@H]1C/C=C\CCCC(=O)OC` [Methyl Nat.-11α-(2-hydroxyethylthio)-15α-hydroxy-9-oxo-5-cis,13-trans-prostadienoate]: the ED50 was found to be 0.0111 mg/kg in assay [1] (setting [13]), 0.0059 mg/kg in assay [2] (setting [15]), 0.035 mg/kg in assay [2] (setting [18]) and 0.00487 mg/kg in assay [4] (setting [16]). Further, the “Potency (Range 0-4)” value in assay [3] came to 4.

Turning to `CCCCC[C@H](O)/C=C/[C@H]1[C@@H](SCCO)CC(=O)[C@@H]1C/C=C\CCCC(=O)OC` [methyl nat.-11β(2-hydroxyethylthio)-15α-hydroxy-9-oxo-5-cis,13-trans prostadienoate], the ED50 was 0.0628 mg/kg in assay [1] (setting [13]), 0.671 mg/kg in assay [1] (setting [14]), 0.06 mg/kg in assay [2] (setting [15]) and 0.0455 mg/kg in assay [4] (setting [16]). Also, in assay [3], the “Potency (Range 0-4)” value is reported as 4.
